Measured values published in patent US20120129811A1, “TRICYCLIC INHIBITORS OF PRO-MATRIX METALLOPROTEINASE ACTIVATION” (priority 2010, published 2012).

Assays:
[1] = test system: rats with SCW-induced arthritis; assay: Efficacy in rats with SCW-induced arthritis (ankle thickness, clinical scores); format: in vivo, rat; settings: for Ankle thickness, Day 18 / Clinical Scores (0-8), Day 18: Day 18 (start of treatment); for Ankle thickness, Day 18 / Ankle thickness, Day 26 / Clinical Scores (0-8), Day 18 / Clinical Scores (0-8), Day 26: mean n=5; for % Inh (disease associated increase in ankle thickness): Day 26
From the text: A polyarthritis can be induced in female Lewis rats following i.p. administration of streptococcal cell wall (SCW) proteoglycan-polysaccharides (PG-PS) (J Exp Med 1977; 146:1585-1602). The model has an acute phase (days 3-7) that is complement and neutrophil-dependent and that resolves. A chronic erosive phase begins at about day ten and is dependent on the development of specific T cell immunity to the PG-GS, which resists digestion and remains present in synovial macrophages for months. Like rheumatoid arthritis, SCW-induced arthritis is reduced by TNF inhibitors, and the dependence of SCW-induced arthritis on macrophages (Rheumatology; 2001; 40:978-987) and the strong association of rheumatoid arthritis severity with synovial-tissue macrophage counts (Ann Rheum Dis; 2005; 64:834-838) makes SCW-arthritis an attractive model for testing potential therapeutic agents. SCW PG-PS 10S (Beckton Dickinson Cat#210866) suspended in saline was vortexed for 30 seconds and sonicated for 3 min with a probe type sonicator prior to injection. Female Lewis (LEW/N) rats, 5-6 weeks of age (80-100 g) were injected (i.p.) with SCW PG-PS (15 μg of rhamnose/gram BW) in the lower left quadrant of the abdomen using a 1 mL syringe fitted with a 23-gauge needle. Control (disease-free) rats were treated in a similar manner with sterile saline. Control rats were sacrificed on day 5 and groups of SCW-injected rats were sacrificed on day 5 when acute inflammation was maximal or on day 18 when chronic inflammation was established.
To induce arthritis, Female Lewis (LEW/N) rats, 5-6 weeks of age (80-100 g) were injected (i.p.) with SCW PG-PS as described above. Eighteen days later, arthritis was well established. Calipers were used to measure the width (anterior to posterior surface) of the left and right hind ankles of each rat. Each ankle was measured 3 times and averaged, and treatment groups were randomized based on ankle thickness (Table 6). Commencing on day 18, randomized groups of arthritic rats (n=5 rats/group) received vehicle or 5, 20, or 50 mg/kg Compound-α BID by oral gavage. Vehicle consisted of an aqueous mixture containing 2% (v:v) N-methylpyrrolidone, 5% (v:v) glycerine, and 20% (w:v) captisol. Treatment continued daily through the morning of day 26.
Hind paw inflammation clinical scores were assigned based on swelling and erythema.

[2] = molecular target: T1, proMMP9 processing to active MMP9 in HFL-1 cells (Homo sapiens, UniProt P14780); assay: Activation of proMMP9 by human fetal lung fibroblast (HFL-1) cultures (Western blot); format: cell-based
T1 construct: host or cells: HFL-1 human fetal lung fibroblasts, TNFα plus neutrophil elastase
Procedure: Activation of proMMP 9 by Human Fetal Lung Fibroblast Cultures
Compound-α was assessed additionally for ability to block the maturation of proMMP9 to active MMP9 in cultures of human fetal lung fibroblasts (HFL-1, American Type Culture Collection # CCL-153). Unlike rat synoviocytes, HFL-1 cells were unable to process proMMP9 to the active form without addition of neutrophil elastase. […] Rather, the function of elastase in this assay may be to inactivate tissue inhibitors of matrix metalloproteinases (TIMPs) that repress endogenous pathways of MMP9 activation (Am J Respir Crit. Care Med; 1999; 159:1138-46).
HLF-1 were maintained in monolayer culture in DMEM with 10% FCS and were used between passage numbers 5-15. HLF-1 were embedded in collagen gels as described for rat SCW synoviocytes (vida supra). Half mL gels containing 0.4 million cells were dislodged into wells of 12 well Costar plates containing 1 mL/well of DMEM adjusted to contain 0.05% BSA and 100 ng/mL human TNFα (R&D Systems Cat #210-TA/CF). After overnight culture (37° C. and 5% CO2) wells were adjusted to contain an additional 0.5 mL of DMEM containing 0.05% BSA and with or without 13.2 μM Compound-α (final concentration was 3.3 μM Compound-α). Next, cultures were adjusted to contain 30 nM human elastase (Innovative Research). The plates were cultured an additional 72 hrs, at which time MMP9 secreted into the conditioned media was bound to gelatin-sepharose and evaluated by Western blot analysis as described for the rat synoviocyte cultures (vida supra). mAb-51/82 detected three forms of MMP9 in HFL-1 cultures.
A second experiment was performed to determine if the 80 kD form was mature active MMP9 and to determine the potency of Compound-α as an inhibitor of MMP9 maturation in this assay. HFL-1 cells embedded in collagen gels were cultured as described above in the presence of TNFα overnight and the cultures were then adjusted to contain 30 nM elastase and graded concentrations of Compound-α for an additional 72 hrs at which time MMP9 secreted into the conditioned media was bound to gelatin-sepharose and evaluated by Western blot analysis for active MMP9 using pAb-1246 raised against the N-terminal neoepitope of active MMP9 (Table 5). In the absence of Compound-α, pAb-1246 readily detected MMP9 with an electrophoretic mobility of approximately 80 kD. […] Inhibition occurred over a dose range with an IC50 of approximately 0.3 μM Compound-α.

[3] = 5 mg/kg BID oral gavage Day 18-26
[4] = 20 mg/kg BID oral gavage Day 18-26
[5] = 50 mg/kg BID oral gavage Day 18-26

T1 sequence (P14780 20-707 limits assumed): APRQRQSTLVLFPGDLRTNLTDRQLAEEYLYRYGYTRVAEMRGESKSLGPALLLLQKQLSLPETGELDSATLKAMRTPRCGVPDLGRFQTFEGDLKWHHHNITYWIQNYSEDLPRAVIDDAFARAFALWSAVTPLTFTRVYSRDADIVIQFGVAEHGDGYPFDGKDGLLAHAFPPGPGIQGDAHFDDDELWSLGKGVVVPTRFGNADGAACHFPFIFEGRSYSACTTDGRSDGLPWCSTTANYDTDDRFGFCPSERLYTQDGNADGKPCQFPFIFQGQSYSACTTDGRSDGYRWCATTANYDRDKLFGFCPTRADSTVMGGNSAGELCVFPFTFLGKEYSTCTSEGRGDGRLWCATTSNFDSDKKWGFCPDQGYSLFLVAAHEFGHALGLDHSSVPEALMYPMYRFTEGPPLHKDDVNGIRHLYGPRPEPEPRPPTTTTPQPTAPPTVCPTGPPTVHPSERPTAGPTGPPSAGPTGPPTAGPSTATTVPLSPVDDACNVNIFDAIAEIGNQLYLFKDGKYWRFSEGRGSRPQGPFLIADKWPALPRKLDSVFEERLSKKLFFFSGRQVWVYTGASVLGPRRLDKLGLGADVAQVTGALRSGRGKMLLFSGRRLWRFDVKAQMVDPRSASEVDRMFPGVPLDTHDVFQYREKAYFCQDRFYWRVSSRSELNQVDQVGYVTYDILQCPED

Structure (SMILES): Cc1nc(C)c(-c2csc(Nc3cc(S(N)(=O)=O)ccc3OC(C)C)n2)s1 [Compound α, 3-(2′,4′-Dimethyl-[4,5′]bithiazolyl-2-ylamino)-4-isopropoxy-benzenesulfonamide.HBr]
- Day 26 Δ mm (vs. group 1) [1, 3]: 3.67 mm
- Ankle thickness, Day 18 [1, 3]: 11.79 mm
- % Inh (disease associated increase in ankle thickness) [1, 3]: 27%
- Ankle thickness, Day 26 [1, 3]: 10.93 mm
- Clinical Scores, Δ Day 18 vs. day 26 ([1]; 5 mg/kg Day 18-26): −1.20
- Clinical Scores (0-8), Day 18 ([1]; 5 mg/kg Day 18-26): 8.00
- Clinical Scores (0-8), Day 26 ([1]; 5 mg/kg Day 18-26): 6.80
- Day 26 Δ mm (vs. group 1) [1, 4]: 3.15 mm
- Ankle thickness, Day 18 [1, 4]: 11.76 mm
- % Inh (disease associated increase in ankle thickness) [1, 4]: 37%
- Ankle thickness, Day 26 [1, 4]: 10.42 mm
- Clinical Scores, Δ Day 18 vs. day 26 ([1]; 20 mg/kg Day 18-26): −2.80
- Clinical Scores (0-8), Day 18 ([1]; 20 mg/kg Day 18-26): 8.00
- Clinical Scores (0-8), Day 26 ([1]; 20 mg/kg Day 18-26): 5.20
- Day 26 Δ mm (vs. group 1) [1, 5]: 2.73 mm
- Ankle thickness, Day 18 [1, 5]: 11.68 mm
- % Inh (disease associated increase in ankle thickness) [1, 5]: 46%
- Ankle thickness, Day 26 [1, 5]: 9.99 mm
- Clinical Scores, Δ Day 18 vs. day 26 ([1]; 50 mg/kg Day 18-26): −3.40
- Clinical Scores (0-8), Day 18 ([1]; 50 mg/kg Day 18-26): 7.80
- Clinical Scores (0-8), Day 26 ([1]; 50 mg/kg Day 18-26): 4.40
- effect on ankle thickness measurements ([1]; 5, 20, 50 mg/kg BID, Day 18-26): dose-dependent decrease in ankle thickness measurements
- effect on clinical score measurements ([1]; 5, 20, 50 mg/kg BID, Day 18-26): dose dependent decrease in clinical score measurements
- Signal, Total ([2]; 3.3 μM Compound-α, 30 nM elastase, final 72 hrs, mAb-L51/82): 91346 INT * mm^2
- Percent of total signal, 80 kD ([2]; 3.3 μM Compound-α, mAb-L51/82): 7%
- Percent of total signal, 86 kD ([2]; 3.3 μM Compound-α, mAb-L51/82): 47%
- Percent of total signal, 100 kD ([2]; 3.3 μM Compound-α, mAb-L51/82): 46%
- inhibition at 0.12 µM ([2]; HFL1, 0.12 μM Compound-α, active MMP9, pAb-1246): 0%
- inhibition at 0.37 µM ([2]; HFL1, 0.37 μM Compound-α, active MMP9, pAb-1246): 73%
- inhibition at 1.1 µM ([2]; HFL1, 1.1 μM Compound-α, active MMP9, pAb-1246): 99%
- inhibition at 3.3 µM ([2]; HFL1, 3.3 μM Compound-α, active MMP9, pAb-1246): 100%
- inhibition at 10 µM ([2]; HFL1, 10 μM Compound-α, active MMP9, pAb-1246): 100%
- IC50 ([2]; HFL-1 cultures, pAb-1246, read-out: IC50 for inhibition of processing of proMMP9 to active MMP9): ~300 nM
